Results taken from patent publication US20230040770A1, “HETEROCYCLIC COMPOUND AND USE THEREOF” (TAKEDA PHARMACEUTICAL COMPANY LIMITED, priority 2019, published 2023).

molecular target: T1, human orexin type 2 receptor (Homo sapiens, UniProt O43614); experiment: Measurement of orexin type 2 receptor agonist activity (calcium indicator fluorescence, CHO cells forcibly expressing human OX2 receptor); type: cell-based; conditions: compound at 3 μM; 0% = DMSO, 100% = orexin A (human) 10 nM
T1 construct: expressed in transfected cells
T1 sequence (O43614 1-444): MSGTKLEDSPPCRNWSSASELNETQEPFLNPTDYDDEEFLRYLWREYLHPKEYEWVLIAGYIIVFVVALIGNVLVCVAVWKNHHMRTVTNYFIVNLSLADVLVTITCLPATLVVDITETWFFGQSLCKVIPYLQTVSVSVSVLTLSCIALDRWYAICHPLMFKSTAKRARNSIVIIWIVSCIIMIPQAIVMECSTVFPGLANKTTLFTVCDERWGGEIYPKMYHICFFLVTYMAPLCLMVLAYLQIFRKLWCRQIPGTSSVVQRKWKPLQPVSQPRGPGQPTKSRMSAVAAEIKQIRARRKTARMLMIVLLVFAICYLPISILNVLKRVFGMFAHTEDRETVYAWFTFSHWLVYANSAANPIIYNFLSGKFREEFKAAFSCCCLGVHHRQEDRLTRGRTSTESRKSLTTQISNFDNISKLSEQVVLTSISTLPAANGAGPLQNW
How it was run: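 CHO-dhfr cells stably expressing human OX2R, loaded with Fluo-4 AM (30 min 37 °C, then 30 min RT), then given test compound. Calcium fluorescence read by FDSS over ~2 min. Activity (%) scaled from DMSO (0%) to 10 nM final orexin A (100%).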

Point of comparison: CCS(=O)(=O)N[C@H]1[C@@H](F)CN(C(=O)C(C)(C)O)[C@H]1Cc1cccc(-c2cccc(F)c2F)c1F [Example 222, N-{(2S,3R,4S)-4-fluoro-1-(2-hydroxy-2-methylpropanoyl)-2-[(2,2′,3′-trifluoro[1,1′-biphenyl]-3-yl)methyl]pyrrolidin-3-yl}ethanesulfonamide], “OX2R agonist activity (3 μM, %)” value 97%. Against it:
- CCS(=O)(=O)N[C@@H]1[C@H](Cc2cccc(-c3ccccc3)c2F)N(C(=O)C2CC2)CC1(F)F [Example 205, N-{(2S,3R)-1-(cyclopropanecarbonyl)-4,4-difluoro-2-[(2-fluoro[1,1′-biphenyl]-3-yl)methyl]pyrrolidin-3-yl}ethanesulfonamide] — lower, 91%
- CCS(=O)(=O)N[C@H]1[C@@H](F)CN(C(=O)C(C)(C)O)[C@H]1Cc1cccc(-c2cccc(F)c2)c1F [Example 207, N-[(2S,3R,4S)-2-[(2,3′-difluoro[1,1′-biphenyl]-3-yl)methyl]-4-fluoro-1-(2-hydroxy-2-methylpropanoyl)pyrrolidin-3-yl]ethanesulfonamide] — lower, 88%
- CCS(=O)(=O)N[C@H]1[C@@H](F)CN(C(=O)N(C)C)[C@H]1Cc1cccc(-c2cccc(F)c2)c1F [Example 210, (2S,3R,4S)-2-[(2,3′-difluoro[1,1′-biphenyl]-3-yl)methyl]-3-[(ethanesulfonyl)amino]-4-fluoro-N,N-dimethylpyrrolidine-1-carboxamide] — lower, 95%
- CCS(=O)(=O)N[C@H]1[C@@H](F)CN(C(=O)N2CCC2)[C@H]1Cc1cccc(-c2cccc(F)c2)c1F [Example 211, N-{(2S,3R,4S)-1-(azetidine-1-carbonyl)-2-[(2,3′-difluoro[1,1′-biphenyl]-3-yl)methyl]-4-fluoropyrrolidin-3-yl}ethanesulfonamide] — lower, 94%
- CCS(=O)(=O)N[C@H]1[C@@H](F)CN(C(=O)C2CC2)[C@H]1Cc1cccc(-c2cccc(F)c2)c1F [Example 212, N-{(2S,3R,4S)-1-(cyclopropanecarbonyl)-2-[(2,3′-difluoro[1,1′-biphenyl]-3-yl)methyl]-4-fluoropyrrolidin-3-yl}ethanesulfonamide] — lower, 96%
- CCS(=O)(=O)N[C@H]1[C@@H](F)CN(C(=O)C2CCO2)[C@H]1Cc1cccc(-c2cccc(F)c2)c1F (stereo partly drawn) [Example 216, N-[(2S,3R,4S)-2-[(2,3′-difluoro[1,1′-biphenyl]-3-yl)methyl]-4-fluoro-1-(oxetane-2-carbonyl)pyrrolidin-3-yl]ethanesulfonamide] — lower, 95%
- CCS(=O)(=O)N[C@H]1[C@@H](F)CN(C(=O)C2CCO2)[C@H]1Cc1cccc(-c2cccc(F)c2)c1F (stereo partly drawn) [Example 217, N-[(2S,3R,4S)-2-[(2,3′-difluoro[1,1′-biphenyl]-3-yl)methyl]-4-fluoro-1-(oxetane-2-carbonyl)pyrrolidin-3-yl]ethanesulfonamide] — lower, 96%
- CCS(=O)(=O)N[C@H]1[C@@H](F)CN(C(=O)C(C)(C)O)[C@H]1Cc1cccc(-c2cc(F)cc(F)c2)c1F [Example 220, N-{(2S,3R,4S)-4-fluoro-1-(2-hydroxy-2-methylpropanoyl)-2-[(2,3′,5′-trifluoro[1,1′-biphenyl]-3-yl)methyl]pyrrolidin-3-yl}ethanesulfonamide] — lower, 90%
- CCS(=O)(=O)N[C@@H]1[C@H](Cc2cccc(-c3cccc(F)c3)c2F)N(C(=O)[C@H]2C[C@@H](F)C2)CC1(F)F [Example 226, N-[(2S,3R)-2-[(2,3′-difluoro[1,1′-biphenyl]-3-yl)methyl]-4,4-difluoro-1-((1s,3R)-3-fluorocyclobutane-1-carbonyl)pyrrolidin-3-yl]ethanesulfonamide] — higher, 100%
- CCS(=O)(=O)N[C@@H]1[C@H](Cc2cccc(-c3ccccc3)c2F)N(C(=O)N2CCC2)CC1(F)F [Example 228, N-{(2S,3R)-1-(azetidine-1-carbonyl)-4,4-difluoro-2-[(2-fluoro[1,1′-biphenyl]-3-yl)methyl]pyrrolidin-3-yl}ethanesulfonamide] — higher, 99%
- CS(=O)(=O)N[C@H]1[C@@H](F)CN(C(=O)C23CC(C2)C3)[C@H]1Cc1cccc(-c2cccc(F)c2)c1F [Example 231, N-{(2S,3R,4S)-1-(bicyclo[1.1.1]pentane-1-carbonyl)-2-[(2,3′-difluoro[1,1′-biphenyl]-3-yl)methyl]-4-fluoropyrrolidin-3-yl}methanesulfonamide] — lower, 95%
- CCS(=O)(=O)N[C@H]1[C@@H](F)CN(C(=O)C2CC2)[C@H]1Cc1cccc(-c2cc(F)ccc2F)c1F [Example 238, N-{(2S,3R,4S)-1-(cyclopropanecarbonyl)-4-fluoro-2-[(2,2′,5′-trifluoro[1,1′-biphenyl]-3-yl)methyl]pyrrolidin-3-yl}ethanesulfonamide] — higher, 98%
- CCS(=O)(=O)N[C@H]1[C@@H](F)CN(C(=O)C2CC2)[C@H]1Cc1cccc(-c2ccccc2)c1F [Example 239, N-{(2S,3R,4S)-1-(cyclopropanecarbonyl)-4-fluoro-2-[(2-fluoro[1,1′-biphenyl]-3-yl)methyl]pyrrolidin-3-yl}ethanesulfonamide] — higher, 102%
- CS(=O)(=O)N[C@@H]1[C@H](Cc2cccc(-c3cc(F)cc(Cl)c3)c2F)N(C(=O)C2CC2)CC1(F)F [Example 245, N-[(2S,3R)-2-[(3′-chloro-2,5′-difluoro[1,1′-biphenyl]-3-yl)methyl]-1-(cyclopropanecarbonyl)-4,4-difluoropyrrolidin-3-yl]methanesulfonamide] — lower, 94%
- CCS(=O)(=O)N[C@@H]1[C@H](Cc2cccc(-c3cc(F)cc(Cl)c3)c2F)N(C(=O)C2CC2)CC1(F)F [Example 248, N-[(2S,3R)-2-[(3′-chloro-2,5′-difluoro[1,1′-biphenyl]-3-yl)methyl]-1-(cyclopropanecarbonyl)-4,4-difluoropyrrolidin-3-yl]ethanesulfonamide] — lower, 90%
- CCS(=O)(=O)N[C@@H]1[C@H](Cc2cccc(-c3cccc(Cl)c3F)c2F)N(C(=O)C2CC2)CC1(F)F [Example 249, N-[(2S,3R)-2-[(3′-chloro-2,2′-difluoro[1,1′-biphenyl]-3-yl)methyl]-1-(cyclopropanecarbonyl)-4,4-difluoropyrrolidin-3-yl]ethanesulfonamide] — lower, 90%
- CS(=O)(=O)N[C@@H]1[C@H](Cc2cccc(-c3cccc(Cl)c3)c2F)N(C(=O)C2CC2)CC1(F)F [Example 250, N-[(2S,3R)-2-[(3′-chloro-2-fluoro[1,1′-biphenyl]-3-yl)methyl]-1-(cyclopropanecarbonyl)-4,4-difluoropyrrolidin-3-yl]methanesulfonamide] — lower, 96%
- CCS(=O)(=O)N[C@@H]1[C@H](Cc2cccc(-c3cc(Cl)ccc3F)c2F)N(C(=O)C2CC2)CC1(F)F [Example 251, N-[(2S,3R)-2-[(5′-chloro-2,2′-difluoro[1,1′-biphenyl]-3-yl)methyl]-1-(cyclopropanecarbonyl)-4,4-difluoropyrrolidin-3-yl]ethanesulfonamide] — lower, 91%
